Test results taken from patent US20120165331A1, “Di/tri-aza-spiro-C9-C11alkanes” (priority 2010, published 2012).

How the values were obtained:
human orexin 2 receptor [1] = molecular target: T1, human orexin 2 receptor (Homo sapiens, UniProt O43614); assay: Radioligand binding assay ([125I]orexin A competition), human orexin 2 receptor; details: radioligand [125I]orexin A instead of [3H]-SB649868; read-out: Binding hOx2R Kd
T1 construct: expressed in transfected cells
T1 sequence (O43614 1-444): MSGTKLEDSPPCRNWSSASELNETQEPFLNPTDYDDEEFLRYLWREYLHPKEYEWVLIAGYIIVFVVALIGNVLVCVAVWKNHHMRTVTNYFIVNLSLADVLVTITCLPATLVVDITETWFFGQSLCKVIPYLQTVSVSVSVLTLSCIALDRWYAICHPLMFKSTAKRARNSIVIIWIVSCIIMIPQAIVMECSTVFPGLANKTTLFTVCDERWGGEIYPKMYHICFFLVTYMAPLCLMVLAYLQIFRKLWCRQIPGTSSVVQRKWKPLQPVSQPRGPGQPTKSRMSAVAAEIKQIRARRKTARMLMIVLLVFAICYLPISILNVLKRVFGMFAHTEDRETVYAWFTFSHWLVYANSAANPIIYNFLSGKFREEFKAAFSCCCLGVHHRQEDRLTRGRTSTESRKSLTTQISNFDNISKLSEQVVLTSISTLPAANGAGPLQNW

human orexin 1 receptor [2] = molecular target: T2, human orexin 1 receptor (Homo sapiens, UniProt O43613); assay: Calcium accumulation in cells (FLIPR), antagonism of orexin A, human orexin 1 receptor; assay type: cell-based; details: calcium accumulation, antagonism of orexin A, Cheng-Prusoff corrected; read-out: FLIPR hOx1R Ki
T2 construct: expressed in transfected cells
T2 sequence (O43613 1-425): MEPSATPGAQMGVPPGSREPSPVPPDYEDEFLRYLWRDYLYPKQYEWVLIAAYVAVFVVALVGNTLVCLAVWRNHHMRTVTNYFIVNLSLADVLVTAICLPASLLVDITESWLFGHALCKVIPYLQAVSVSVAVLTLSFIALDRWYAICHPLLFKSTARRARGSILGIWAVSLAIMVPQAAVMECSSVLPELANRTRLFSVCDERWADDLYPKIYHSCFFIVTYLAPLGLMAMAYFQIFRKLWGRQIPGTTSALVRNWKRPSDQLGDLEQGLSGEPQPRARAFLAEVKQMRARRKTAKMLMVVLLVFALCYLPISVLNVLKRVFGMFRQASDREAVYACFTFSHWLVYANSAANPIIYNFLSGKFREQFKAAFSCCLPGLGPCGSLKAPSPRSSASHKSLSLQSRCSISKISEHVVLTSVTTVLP

human orexin 2 receptor [3] = molecular target: T1, human orexin 2 receptor; assay: Calcium accumulation in cells (FLIPR), antagonism of orexin A, human orexin 2 receptor; assay type: cell-based; details: calcium accumulation, antagonism of orexin A, Cheng-Prusoff corrected; read-out: FLIPR hOx2R Ki
human orexin 1 receptor [4] = molecular target: T2, human orexin 1 receptor; assay: Radioligand binding assay ([125I]orexin A competition), human orexin 1 receptor; details: radioligand [125I]orexin A instead of [3H]-SB649868; read-out: Binding hOx1R Kd
human orexin 2 receptor [5] = molecular target: T1, human orexin 2 receptor; assay: Radioligand binding assay ([3H]-SB649868 competition), human orexin 2 receptor; details: radioligand [3H]-SB649868; read-out: Binding hOx2R Kd
Method in brief: (§1)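 Competition binding against roughly 1 nM [3H]-SB649868, run in triplicate for 1 h at room temperature on CHO or HEK membranes bearing human receptor (10 mM HEPES pH 7.5, 0.5% BSA, 5 mM MgCl2, 1 mM CaCl2, 0.05% tween). Bound radioactivity after vacuum filtration; almorexant 10 μM for non-specific binding; expressed as Kd.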

human orexin 1 receptor [6] = molecular target: T2, human orexin 1 receptor; assay: Radioligand binding assay ([3H]-SB649868 competition), human orexin 1 receptor; details: radioligand [3H]-SB649868; read-out: Binding hOx1R Kd
Method in brief: as §1

| Compound | Kd (human orexin 2 receptor [1]) [nM] | Ki (human orexin 1 receptor [2]) [nM] | Ki (human orexin 2 receptor [3]) [nM] | Kd (human orexin 1 receptor [4]) [nM] | Kd (human orexin 2 receptor [5]) [nM] | Kd (human orexin 1 receptor [6]) [nM] |
| --- | --- | --- | --- | --- | --- | --- |
| O=C1N(Cc2cccc3ccccc23)CCC12CCN(c1cnc3ccccc3n1)CC2 [Example 3.11, 2-(Naphthalen-1-ylmethyl)-8-(quinoxalin-2-yl)-2,8-diazaspiro[4.5]decan-1-one] | 414 | 1070 | 195 | 6360 | – | – |
| O=C1N(Cc2cccc3ccccc23)CCC12CCN(c1nc3ccccc3[nH]1)CC2 [Example 3.7, 8-(1H-Benzo[d]imidazol-2-yl)-2-(naphthalen-1-ylmethyl)-2,8-diazaspiro[4.5]decan-1-one] | 1920 | – | – | > 10000 | – | – |
| Cc1cc(C)nc(N2CCC3(CC2)NCCN(Cc2nn(C)nc2-c2ccc4c(c2)OCCO4)C3=O)n1 [Example 1.80, 4-((5-(2,3-dihydro-benzo[b][1,4]dioxin-6-yl)-2-methyl-2H-1,2,3-triazol-4-yl)methyl)-9-(4,6-dimethylpyrimidin-2-yl)-1,4,9-triazaspiro[5.5] undecan-5-one] | – | 501 | 4.3 | – | 27 | 860 |
| COc1cccc(-c2ocnc2CN2CCNC3(CCN(c4nc(C)cc(C)n4)CC3)C2=O)c1 [Example 1.9, 9-(4,6-Dimethylpyrimidin-2-yl)-4-((5-(3-methoxyphenyl)oxazol-4-yl)methyl)-1,4,9-triazaspiro[5.5] undecan-5-one] | – | 230 | 4 | – | 25 | 397 |
| Cc1ccc(C)c(CN2C(=O)COCC23CCN(c2cnc4ccccc4n2)CC3)c1 [Example 8.7, 1-(2,5-Dimethylbenzyl)-9-(quinoxalin-2-yl)-4-oxa-1,9-diazaspiro[5.5]undecan-2-one] | – | 274 | 24 | – | 102 | 431 |
| COc1cc(C)nc(N2CCC3(CCN(Cc4ccccc4-c4nc(C)no4)C3=O)CC2)n1 [Example 3.20, 8-(4-Methoxy-6-methyl-pyrimidin-2-yl)-2-[2-(3-methyl-[1,2,4]oxadiazol-5-yl)-benzyl]-2,8-diaza-spiro[4.5]decan-1-one] | – | 1640 | 43 | – | 328 | 7670 |
| O=C1COCC2(CCN(c3cnc4ccccc4n3)CC2)N1Cc1cccc2[nH]ccc12 [Example 8.9, 1-((1H-Indol-4-yl)methyl)-9-(quinoxalin-2-yl)-4-oxa-1,9-diazaspiro[5.5]undecan-2-one] | – | 320 | 29 | – | 136 | 429 |
| Cc1ccnc(N2CCC3(CC2)OCCN(Cc2c[nH]c4ccccc24)C3=O)n1 [Example 2.8, 4-((1H-Indol-3-yl)methyl)-9-(4-methylpyrimidin-2-yl)-1-oxa-4,9-diazaspiro[5.5]undecan-5-one] | – | 2460 | 105 | – | 78 | 5610 |
| COc1cc(C)nc(N2CC[C@]3(CCCN(Cc4c[nH]c5ccccc45)C3=O)C2)n1 (single isomer, unassigned) [Example 7.9] | – | 10 | 1.9 | – | 12 | 12 |
| Cc1cc(C)nc(N2CCC3(CC2)NCCN(Cc2nn(C)cc2-c2cccc(OCC4CC4)c2)C3=O)n1 [Example 1.52, 4-((4-(3-(Cyclo-propylmethoxy)phenyl)-1-methyl-1H-pyrazol-3-yl)methyl)-9-(4,6-dimethylpyrimidin-2-yl)-1,4,9-triazaspiro[5.5] undecan-5-one] | – | 286 | 2.8 | – | 50 | 436 |
| COc1cccc(-c2ocnc2CN2CCNC3(CCN(c4nc(C)cc(OC)n4)CC3)C2=O)c1 [Example 1.13, 9-(4-Methoxy-6-methylpyrimidin-2-yl)-4-((5-(3-methoxyphenyl)oxazol-4-yl)methyl)-1,4,9-triazaspiro[5.5] undecan-5-one] | – | 37 | 3 | – | 200 | 82 |
| Cc1cc(C)nc(N2CCC3(CC2)OCCN(Cc2nn(C)cc2-c2ccccc2)C3=O)n1 [Example 2.11, 9-(4,6-Dimethylpyrimidin-2-yl)-4-((1-methyl-4-phenyl-1H-pyrazol-3-yl)methyl)-1-oxa-4,9-diazaspiro[5.5]undecan-5-one] | – | 2320 | 75 | – | 229 | 3180 |
| Cc1cc(C)nc(N2CCC3(CC2)OCCN(Cc2c[nH]c4ccc(F)cc24)C3=O)n1 [Example 2.6, 9-(4,6-Dimethylpyrimidin-2-yl)-4-((5-fluoro-1H-indol-3-yl)methyl)-1-oxa-4,9-diazaspiro[5.5]undecan-5-one] | – | 1060 | 13 | – | 26 | 1060 |
| Cc1cc(C)nc(N2CCC3(CC2)NCCN(Cc2nn(C)cc2-c2cccc(OCC(C)C)c2)C3=O)n1 [Example 1.53, 9-(4,6-Dimethyl-pyrimidin-2-yl)-4-((4-(3-isobutoxyphenyl)-1-methyl-1H-pyrazol-3-yl)methyl)-1,4,9-triazaspiro[5.5] undecan-5-one] | – | 331 | 7 | – | 45 | 319 |
| COc1cc(C)nc(N2CCC3(CCCN(Cc4n[nH]c5ccccc45)C3=O)C2)n1 (stereo not shown) [Example 7.12, 7-((1H-indazol-3-yl)methyl)-2-(4-methoxy-6-methylpyrimidin-2-yl)-2,7-diazaspiro[4.5]decan-6-one] | – | 309 | 48 | – | 138 | 173 |
| COc1cccc(-c2n[nH]nc2CN2CCOC3(CCN(c4nc(C)cc(C)n4)CC3)C2=O)c1 [Example 2.17, 9-(4,6-Dimethylpyrimidin-2-yl)-4-((5-(3-methoxyphenyl)-2H-1,2,3-triazol-4-yl)methyl)-1-oxa-4,9-diazaspiro[5.5]undecan-5-one] | – | 220 | 1 | – | 16 | 363 |
| Cc1cc(C#N)nc(N2CCC3(CC2)NCCN(Cc2c[nH]c4ccccc24)C3=O)n1 [Example 1.40, 2-(4-((1H-Indol-3-yl)methyl)-5-oxo-1,4,9-triazaspiro[5.5]undecan-9-yl)-6-methylpyrimidine-4-carbonitrile] | – | 2810 | 20 | – | 79 | 5300 |
| Cc1cc(C)nc(N2CCC3(CC2)OCCN(Cc2c[nH]c4ccccc24)C3=O)n1 [Example 2.1, 4-((1H-indol-3-yl)methyl)-9-(4,6-dimethylpyrimidin-2-yl)-1-oxa-4,9-diazaspiro[5.5]undecan-5-one] | – | 1700 | 29 | – | 31 | 1320 |
